# Source: patent EP3468532B1, “DISPENSING DEVICE AND PHARMACEUTICAL COMPOSITION FOR THE TREATMENT OF RHINITIS” (Glenmark Specialty S.A., priority 2017, dated 2019)
# Read-outs that look alike come from different tables or passages of the source.
# Assays:
# [1] = Example 7: Phase III clinical study, plasma pharmacokinetics of TP-1; format: in vivo, human; conditions: for AUC / Cmax / Tmax: human, plasma; for Tmax: read-out: Tmax, Median (range)
# Source text: This study consisted of four visits to the study site. After the initial screening visit (Visit 1), subjects who met all study selection criteria were required to undergo a single-blind placebo run-in period for 7-10 days. Following the completion of the run-in period, eligible subjects meeting the randomization criteria were enrolled and randomized to one of the four treatment arms. Subjects were dispensed medication as per the randomization list. Randomized subjects were required to undergo a 2 week (14 days) treatment period as per the protocol to assess the efficacy and safety of the assigned treatment. Subjects were instructed to record the symptom scores in a symptom assessment diary. They were also scheduled to have at least two blood samples for PK assessment during the treatment period.
# • Plasma PK: Maximum plasma concentration (Cmax), time to attain Cmax (Tmax), and area under the plasma concentration-time curve over the dosing interval (AUCtau) will be estimated for mometasone furoate and olopatadine on Day 1 and Day 8 based on the pharmacokinetic analysis set (PKAS).
# The pharmacokinetics (PK) of TP-1 were measured for a subset of patients in the phase III clinical study on day 1 and day 8 (steady state).
# [2] = Example 11: single-dose cross-over study, pharmacokinetics of mometasone furoate; format: in vivo, human
# Protocol: The pharmacokinetics of mometasone furoate in a fixed dose combination of mometasone furoate and olopatadine hydrochloride nasal spray was evaluated in a clinical trial. The clinical trial was a randomized, single-center, single-dose, open-label, three-period, six-sequence, cross-over study to evaluate three treatments administered by nasal spray. The three treatments included a combination of mometasone furoate and olopatadine hydrochloride nasal spray, mometasone furoate nasal spray and Nasonex® nasal spray.
# (§1) The study consisted of a screening visit, 3 single-dose treatment periods with washout periods of 7 to 14 days between dosing in each treatment period, an early withdrawal visit if applicable, and a follow-up telephone call (or visit) 1 to 7 days after completing the third treatment period.
# (§2) A total of 30 subjects were randomized to 1 of 6 treatment sequences and received at least 1 dose of study drug. All 30 subjects were included in the safety analysis set and the pharmacokinetic subset. All but 2 subjects completed the study per protocol.
# [3] = human, in vivo
# Protocol: The pharmacokinetics of olopatadine in a fixed dose combination of mometasone furoate and olopatadine hydrochloride nasal spray was evaluated in a clinical trial. The clinical trial was a randomized, single-center, single-dose, open-label, three-period, six-sequence, cross-over study to evaluate three treatments administered as a nasal spray. The three treatments included a combination of mometasone furoate and olopatadine hydrochloride nasal spray, olopatadine hydrochloride nasal spray and PATANASE® nasal spray.
# as §1, §2
# [4] = patients receiving TP-1, Day 8 (steady state)
# [5] = human, in vivo, inhaled or intranasal, mometasone furoate in fixed dose combination nasal spray, single dose
smiles,measurement,setting,value
C[C@@H]1C[C@H]2[C@@H]3CCC4=CC(=O)C=C[C@]4(C)[C@@]3(Cl)[C@@H](O)C[C@]2(C)[C@@]1(OC(=O)c1ccco1)C(=O)CCl [Mometasone furoate],AUC,"[1]; mometasone furoate in plasma, patients receiving TP-1, Day 1, read-out: AUCtau, Geo Mean (Geo CV%)",0.0262 ng·h/mL
same,AUC,"[1]; mometasone furoate in plasma, patients receiving TP-1, Day 1, read-out: AUCtau, Mean (SD)",0.0286 ng·h/mL
same,AUC,"[1]; mometasone furoate in plasma, patients receiving TP-1, Day 1, read-out: AUCtau, Min-Max",0.0121 to 0.0725 ng·h/mL
same,Cmax,"[1]; mometasone furoate in plasma, patients receiving TP-1, Day 1, read-out: Cmax, Geo Mean (Geo CV%)",0.00627 ng/mL
same,Cmax,"[1]; mometasone furoate in plasma, patients receiving TP-1, Day 1, read-out: Cmax, Mean (SD)",0.00678 ng/mL
same,Cmax,"[1]; mometasone furoate in plasma, patients receiving TP-1, Day 1, read-out: Cmax, Min-Max",0.00267 to 0.0128 ng/mL
same,AUC,"[1]; mometasone furoate in plasma, patients receiving TP-1, Day 8 (steady state), read-out: AUCtau, Geo Mean (Geo CV%)",0.0527 ng·h/mL
same,AUC,"[1]; mometasone furoate in plasma, patients receiving TP-1, Day 8 (steady state), read-out: AUCtau, Mean (SD)",0.0584 ng·h/mL
same,AUC,"[1]; mometasone furoate in plasma, patients receiving TP-1, Day 8 (steady state), read-out: AUCtau, Min-Max",0.0257 to 0.124 ng·h/mL
same,Cmax,"[1]; mometasone furoate in plasma, patients receiving TP-1, Day 8 (steady state), read-out: Cmax, Geo Mean (Geo CV%)",0.00917 ng/mL
same,Cmax,"[1]; mometasone furoate in plasma, patients receiving TP-1, Day 8 (steady state), read-out: Cmax, Mean (SD)",0.00992 ng/mL
same,Cmax,"[1]; mometasone furoate in plasma, patients receiving TP-1, Day 8 (steady state), read-out: Cmax, Min-Max",0.00358 to 0.0161 ng/mL
same,Tmax,"[1]; patients receiving TP-1, Day 1",1 h
same,"Tmax, Median (range)",[1]; [4],1.00 (0.25-2) hour
same,AUC(0-t),[2]; [5],0.085 ng·h/mL
same,Cmax,[2]; [5],0.0108 ng/mL
same,Tmax,[2]; [5],1 h
same,AUC(0-inf),"[2]; human, in vivo, inhaled or intranasal, mometasone furoate in fixed dose combination nasal spray, single dose, read-out: AUC(0-infinity)",0.104 ng·h/mL
same,Quantifiable concentrations observed until the last time point,[2]; single dose nasal spray,72 h
CN(C)CC/C=C1/c2ccccc2COc2ccc(CC(=O)O)cc21 [Olopatadine],AUC,"[1]; olopatadine in plasma, patients receiving TP-1, Day 1, read-out: AUCtau, Geo Mean (Geo CV%)",72.9 ng·h/mL
same,AUC,"[1]; olopatadine in plasma, patients receiving TP-1, Day 1, read-out: AUCtau, Mean (SD)",75.5 ng·h/mL
same,AUC,"[1]; olopatadine in plasma, patients receiving TP-1, Day 1, read-out: AUCtau, Min-Max",39.3 to 117 ng·h/mL
same,Cmax,"[1]; olopatadine in plasma, patients receiving TP-1, Day 1, read-out: Cmax, Geo Mean (Geo CV%)",18.8 ng/mL
same,Cmax,"[1]; olopatadine in plasma, patients receiving TP-1, Day 1, read-out: Cmax, Mean (SD)",19.8 ng/mL
same,Cmax,"[1]; olopatadine in plasma, patients receiving TP-1, Day 1, read-out: Cmax, Min-Max",8.7 to 31.6 ng/mL
same,AUC,"[1]; olopatadine in plasma, patients receiving TP-1, Day 8 (steady state), read-out: AUCtau, Geo Mean (Geo CV%)",85.7 ng·h/mL
same,AUC,"[1]; olopatadine in plasma, patients receiving TP-1, Day 8 (steady state), read-out: AUCtau, Mean (SD)",88.8 ng·h/mL
same,AUC,"[1]; olopatadine in plasma, patients receiving TP-1, Day 8 (steady state), read-out: AUCtau, Min-Max",53.4 to 138 ng·h/mL
same,Cmax,"[1]; olopatadine in plasma, patients receiving TP-1, Day 8 (steady state), read-out: Cmax, Geo Mean (Geo CV%)",18.7 ng/mL
same,Cmax,"[1]; olopatadine in plasma, patients receiving TP-1, Day 8 (steady state), read-out: Cmax, Mean (SD)",19.8 ng/mL
same,Cmax,"[1]; olopatadine in plasma, patients receiving TP-1, Day 8 (steady state), read-out: Cmax, Min-Max",9.67 to 37.3 ng/mL
same,Tmax,"[1]; patients receiving TP-1, Day 1",1 h
same,"Tmax, Median (range)",[1]; [4],1.00 (0.25-2) hour
same,Quantifiable concentrations observed until the last time point,[3],48 h
